Drawing on ChEMBL document CHEMBL1134488, “Potent reversible inhibitors of the protein tyrosine phosphatase CD45” (J Med Chem, 2001), this text covers IC50 and CC50 for 54 molecules.

The subject of assay [1] is T-cell. The experiment in a line: In vitro inhibition of human T-cell proliferation. It is filed as functional, cell-based.
For assay [2], the system named is T-cell. The assay is described as follows: Cytotoxicity measured against human T-cells. The format is functional.

Where a SMILES comes first, the peptide text is derived from it. The star is where a group is joined. Phenanthrenequinone2carbonyl = O=C1C(=O)c2cc(C(=O)*)ccc2-c2ccccc21; X1 = O=C1C(=O)c2cc(N*)ccc2-c2ccccc21 Where only a bound is given, the exact number is not on record here.

Molecule `O=C1C(=O)c2ncccc2-c2ccccc21` gave an IC50 in the assay with T-cell [1] of 0.4 µM. The same molecule displayed a CC50 in the assay on T-cell [2] of 7 µM.
On the same counts, the results for `O=C1C=C(c2cc(Cl)cc(Cl)c2)c2ccccc2C1=O` are 0.3 µM and 5.5 µM.
In the same order, the values of `O=C1C=C(c2c(-c3ccccc3)[nH]c3ccccc23)c2ccccc2C1=O` are 2.2 µM and 16 µM.
On the same counts, the results for `CCOc1ccccc1-c1ccc2c(c1)C(=O)C(=O)c1ccccc1-2` are 0.7 µM and more than 30 µM.
`O=C1C(=O)c2cc([N+](=O)[O-])ccc2-c2ccc([N+](=O)[O-])cc21` displayed a half-maximal inhibitory concentration (IC50) in the assay with T-cell [1] of 0.5 µM. For the same molecule, in the assay on T-cell [2], half-maximal cytotoxicity (CC50) was put at 8 µM.
On the same counts, the results for `O=C(O)c1ccc2c(c1)C(=O)C(=O)c1ccccc1-2` are more than 30 µM and more than 30 µM.
On the same counts, the results for `O=C1C=C(c2ccccc2Cl)c2ccccc2C1=O` are 0.3 µM and 12.4 µM.
In the same order, the values of `O=C(O)CNC(=O)c1ccc2c(c1)-c1ccccc1C(=O)C2=O` are 6.5 µM and more than 30 µM.
The molecule `O=C(O)c1ccc2c(c1)-c1ccccc1C(=O)C2=O` came in with an IC50 in the assay with T-cell [1] of more than 30 µM.
As to `O=C1C(=O)c2cc([N+](=O)[O-])ccc2-c2ccccc21`, the IC50 in the assay on T-cell [1] was determined as 1.6 µM. Also, the cytotoxic concentration (CC50) in the assay on T-cell [2] is 10 µM.
For the molecule `Nc1cccc2c1-c1ccccc1C(=O)C2=O`, in the assay on T-cell [1], the 50% inhibitory concentration (IC50) came to 0.2 µM. For the same molecule, the 50% cytotoxic concentration (CC50) in the assay with T-cell [2] worked out at 9 µM.
In the same order, the values of `Cn1cc(C2=CC(=O)C(=O)c3ccccc32)c2ccccc21` are 1.5 µM and more than 30 µM.
As to `O=C1C(=O)c2cccc([N+](=O)[O-])c2-c2ccccc21`, the CC50 in the assay on T-cell [2] came out at 10 µM.
The molecule `COC(=O)CCCC(=O)Nc1ccc2c(c1)-c1ccccc1C(=O)C2=O` gave an IC50 with T-cell [1] of 1.6 µM. The molecule further displayed a 50% cytotoxic concentration (CC50) in the assay with T-cell [2] of 9 µM.
In the same order, the values of `O=C1C=C(c2cccc([N+](=O)[O-])c2)c2ccccc2C1=O` are 0.4 µM and 4 µM.
In the same order, the values of `CCOC1=CC(=O)C(=O)c2ccccc21` are more than 30 µM and more than 30 µM.
On the same counts, the results for `O=C1C(=O)c2ccc([N+](=O)[O-])cc2-c2ccccc21` are 0.2 µM and 2.8 µM.
In turn, `C=CCOC1=CC(=O)C(=O)c2ccccc21` gave an IC50 in the assay on T-cell [1] of more than 30 µM. Moreover, the CC50 in the assay with T-cell [2] is more than 30 µM.
In the case of `O=C1C=Cc2ccc(O)cc2C1=O`, the IC50 in the assay with T-cell [1] is more than 30 µM. This molecule had a CC50 in the assay on T-cell [2] of more than 30 µM.
`CCCC(=O)Nc1ccc2c(c1)C(=O)C(=O)c1ccccc1-2` returned a half-maximal inhibitory concentration (IC50) in the assay on T-cell [1] of 1.1 µM. Further, in the assay with T-cell [2], the CC50 was 8.2 µM.
As for `O=C1C(=O)c2ccc(NC(=O)c3ccccc3C(F)(F)F)cc2-c2ccccc21`, the CC50 with T-cell [2] worked out at 14 µM.
The molecule `O=C1C=C(c2ccccc2)c2ccccc2C1=O` returned a 50% inhibitory concentration (IC50) in the assay with T-cell [1] of 0.2 µM. Further, the CC50 with T-cell [2] was found to be 12 µM.
In the same order, the values of `O=C1C=Cc2cc(C(=O)c3ccccc3)ccc2C1=O` are 11 µM and more than 30 µM.
In the same order, the values of `O=C1C(=O)c2cc(-c3ccsc3)ccc2-c2ccccc21` are 1.7 µM and 7.3 µM.
In the same order, the values of `COC(=O)c1ccc2c(c1)C=CC(=O)C2=O` are 7.1 µM and more than 30 µM.
In the case of `COC(=O)c1cccc2c1C=CC(=O)C2=O`, the CC50 with T-cell [2] was more than 30 µM.
Same read-out and setting: next, `COC(=O)CCC(=O)Nc1ccc2c(c1)-c1ccccc1C(=O)C2=O`: 18 µM.
The same measure, in the same setting: next, `Nc1ccc2c(c1)-c1ccccc1C(=O)C2=O`: 17 µM.
In the assay on T-cell [1], `O=C1C(=O)c2cc(-c3ccc4c(c3)OCO4)ccc2-c2ccccc21` registered an IC50 of 1.7 µM. Besides, in the assay on T-cell [2], the CC50 stood at 5 µM.
On the same counts, the results for `Nc1cccc2c1C(=O)C(=O)c1ccccc1-2` are 7.8 µM and 9.6 µM.
On the same counts, the results for `O=C1C=C(Br)c2ccccc2C1=O` are 22 µM and more than 30 µM.
`O=C1C(=O)c2ccsc2-c2ccccc21` displayed a CC50 in the assay with T-cell [2] of 3.5 µM.
For the molecule `Cc1ccc(S(=O)(=O)Nc2ccc3c(c2)C(=O)C(=O)c2ccccc2-3)cc1`, it took 6.4 µM to reach half-maximal inhibition in the assay with T-cell [1] (IC50). Besides, the 50% cytotoxic concentration (CC50) in the assay with T-cell [2] was more than 30 µM.
Consider `Cc1ccc(S(=O)(=O)N(c2ccc3c(c2)C(=O)C(=O)c2ccccc2-3)S(=O)(=O)c2ccc(C)cc2)cc1`, for which the CC50 in the assay with T-cell [2] was found to be 5.3 µM.
`O=C1C=C(c2ccc(Br)cc2)c2ccccc2C1=O`: inhibition in the assay with T-cell [1] was half-maximal at 0.2 µM (IC50). The CC50 in the assay on T-cell [2] amounted to 3 µM.
The molecule `CC(=O)N[C@@H](C)C(=O)N[C@H](C(=O)N[C@@H](CCC(=O)O)C(=O)NCC(=O)N[C@@H](CCC(N)=O)C(=O)N[C@@H](CC(=O)Nc1ccc2c(c1)C(=O)C(=O)c1ccccc1-2)C(=O)O)[C@@H](C)O` (Ac-ATEGQD(X1)-OH) registered an IC50 in the assay on T-cell [1] of 21.4 µM.
The same measure, in the same setting: under `CC(=O)N[C@@H](Cc1ccccc1)C(=O)N[C@H](C(=O)N[C@@H](C)C(=O)N[C@H](C(=O)N[C@@H](CCC(=O)O)C(=O)NCC(=O)N[C@@H](CCC(N)=O)C(=O)N[C@@H](CC(=O)Nc1ccc2c(c1)C(=O)C(=O)c1ccccc1-2)C(=O)O)[C@@H](C)O)[C@@H](C)O` (Ac-FTATEGQD(X1)-OH) stands more than 30 µM; under `CC(=O)N[C@H](C(=O)N[C@@H](C)C(=O)N[C@H](C(=O)N[C@@H](CCC(=O)O)C(=O)NCC(=O)N[C@@H](CCC(N)=O)C(=O)N[C@@H](CC(=O)Nc1ccc2c(c1)C(=O)C(=O)c1ccccc1-2)C(=O)O)[C@@H](C)O)[C@@H](C)O` (Ac-TATEGQD(X1)-OH), 23 µM.
In the case of `O=C(O)CC[C@H](NC(=O)c1ccc2c(c1)C(=O)C(=O)c1ccccc1-2)C(=O)N[C@@H](CCC(=O)O)C(=O)N1CCC[C@H]1C(=O)N[C@@H](CCC(=O)O)C(=O)NCC(=O)O` (Phenanthrenequinone2carbonyl-EEPEG-OH), the IC50 with T-cell [1] came to 14.2 µM. In the assay with T-cell [2], the CC50 is more than 30 µM.
On the same counts, the results for `N=C(N)NCCC[C@H](NC(=O)[C@@H]1CCCN1C(=O)[C@H](CCC(=O)O)NC(=O)[C@H](CCC(=O)O)NC(=O)c1ccc2c(c1)C(=O)C(=O)c1ccccc1-2)C(=O)NCC(=O)O` (Phenanthrenequinone2carbonyl-EEPRG-OH) are 16 µM and more than 30 µM.
In the same order, the values of `O=C(O)CC[C@H](NC(=O)c1ccc2c(c1)C(=O)C(=O)c1ccccc1-2)C(=O)NCC(=O)N1CCC[C@H]1C(=O)N[C@@H](CCC(=O)O)C(=O)NCC(=O)O` (Phenanthrenequinone2carbonyl-EGPEG-OH) are 8.8 µM and more than 30 µM.
`N=C(N)NCCC[C@H](NC(=O)[C@@H]1CCCN1C(=O)CNC(=O)[C@H](CCC(=O)O)NC(=O)c1ccc2c(c1)C(=O)C(=O)c1ccccc1-2)C(=O)NCC(=O)O` (Phenanthrenequinone2carbonyl-EGPRG-OH) gave an IC50 in the assay on T-cell [1] of 23 µM. Further, the CC50 with T-cell [2] is more than 30 µM.
In the same order, the values of `N=C(N)NCCC[C@H](NC(=O)[C@H](CCC(=O)O)NC(=O)c1ccc2c(c1)C(=O)C(=O)c1ccccc1-2)C(=O)N1CCC[C@H]1C(=O)N[C@@H](CCC(=O)O)C(=O)NCC(=O)O` (Phenanthrenequinone2carbonyl-ERPEG-OH) are 3 µM and more than 30 µM.
In the same order, the values of `N=C(N)NCCC[C@H](NC(=O)[C@@H]1CCCN1C(=O)[C@H](CCCNC(=N)N)NC(=O)[C@H](CCC(=O)O)NC(=O)c1ccc2c(c1)C(=O)C(=O)c1ccccc1-2)C(=O)NCC(=O)O` (Phenanthrenequinone2carbonyl-ERPRG-OH) are 19 µM and more than 30 µM.
Turning to `O=C(O)CC[C@H](NC(=O)[C@@H]1CCCN1C(=O)[C@H](CCC(=O)O)NC(=O)CNC(=O)c1ccc2c(c1)C(=O)C(=O)c1ccccc1-2)C(=O)NCC(=O)O` (Phenanthrenequinone2carbonyl-GEPEG-OH), in the assay with T-cell [1], it took 9 µM to reach half-maximal inhibition (IC50). In the assay on T-cell [2], this molecule yielded a 50% cytotoxic concentration (CC50) of more than 30 µM.
In the same order, the values of `N=C(N)NCCC[C@H](NC(=O)[C@@H]1CCCN1C(=O)[C@H](CCC(=O)O)NC(=O)CNC(=O)c1ccc2c(c1)C(=O)C(=O)c1ccccc1-2)C(=O)NCC(=O)O` (Phenanthrenequinone2carbonyl-GEPRG-OH) are 20 µM and more than 30 µM.
In the same order, the values of `O=C(O)CC[C@H](NC(=O)[C@@H]1CCCN1C(=O)CNC(=O)CNC(=O)c1ccc2c(c1)C(=O)C(=O)c1ccccc1-2)C(=O)NCC(=O)O` (Phenanthrenequinone2carbonyl-GGPEG-OH) are 19.3 µM and more than 30 µM.
On the same counts, the results for `N=C(N)NCCC[C@H](NC(=O)[C@@H]1CCCN1C(=O)CNC(=O)CNC(=O)c1ccc2c(c1)C(=O)C(=O)c1ccccc1-2)C(=O)NCC(=O)O` (Phenanthrenequinone2carbonyl-GGPRG-OH) are 16 µM and more than 30 µM.
With `N=C(N)NCCC[C@H](NC(=O)CNC(=O)c1ccc2c(c1)C(=O)C(=O)c1ccccc1-2)C(=O)N1CCC[C@H]1C(=O)N[C@@H](CCC(=O)O)C(=O)NCC(=O)O` (Phenanthrenequinone2carbonyl-GRPEG-OH), half-maximal inhibition in the assay on T-cell [1] (IC50) required 5.5 µM. Besides, the half-maximal cytotoxic concentration (CC50) with T-cell [2] is more than 30 µM.
In the assay on T-cell [1], `N=C(N)NCCC[C@H](NC(=O)[C@@H]1CCCN1C(=O)[C@H](CCCNC(=N)N)NC(=O)CNC(=O)c1ccc2c(c1)C(=O)C(=O)c1ccccc1-2)C(=O)NCC(=O)O` (Phenanthrenequinone2carbonyl-GRPRG-OH) yielded an IC50 of more than 30 µM. Also, the CC50 in the assay with T-cell [2] was more than 30 µM.
In turn, `N=C(N)NCCC[C@H](NC(=O)c1ccc2c(c1)C(=O)C(=O)c1ccccc1-2)C(=O)N[C@@H](CCC(=O)O)C(=O)N1CCC[C@H]1C(=O)N[C@@H](CCC(=O)O)C(=O)NCC(=O)O` (Phenanthrenequinone2carbonyl-REPEG-OH) showed an IC50 in the assay with T-cell [1] of 5 µM. Further, the half-maximal cytotoxic concentration (CC50) in the assay with T-cell [2] is more than 30 µM.
In the same order, the values of `N=C(N)NCCC[C@H](NC(=O)c1ccc2c(c1)C(=O)C(=O)c1ccccc1-2)C(=O)NCC(=O)N1CCC[C@H]1C(=O)N[C@@H](CCC(=O)O)C(=O)NCC(=O)O` (Phenanthrenequinone2carbonyl-RGPEG-OH) are 3.3 µM and more than 30 µM.
On the same counts, the results for `N=C(N)NCCC[C@H](NC(=O)c1ccc2c(c1)C(=O)C(=O)c1ccccc1-2)C(=O)NCC(=O)N1CCC[C@H]1C(=O)N[C@@H](CCCNC(=N)N)C(=O)NCC(=O)O` (Phenanthrenequinone2carbonyl-RGPRG-OH) are 14 µM and more than 30 µM.
In the same order, the values of `N=C(N)NCCC[C@H](NC(=O)c1ccc2c(c1)C(=O)C(=O)c1ccccc1-2)C(=O)N[C@@H](CCCNC(=N)N)C(=O)N1CCC[C@H]1C(=O)N[C@@H](CCC(=O)O)C(=O)NCC(=O)O` (Phenanthrenequinone2carbonyl-RRPEG-OH) are 11 µM and more than 30 µM.
